The record followed here is US11027029B2, “Peptide thiourea derivative, radioisotope labeled compound containing same, and pharmaceutical composition containing same as active ingredient for treating or diagnosing prostate cancer” (CELLBION CO., LTD, priority 2015, dated 2021).

This test concerns the target T1, PSMA positive 22Rv1 cells (Homo sapiens, UniProt Q04609).
T1 construct: endogenous in cells; host or cells: 22Rv1 prostate cancer cells
Briefly: In vitro competitive inhibition cell binding test against I-125-MIP-1072. The following applies: 1.85 kBq I-125-MIP-1072, 1 hour, nonlinear regression analysis, read-out: IC50 (inhibition of binding between 22Rv1 cells and I-125-MIP-1072). The procedure: To perform in vitro competitive inhibition cell binding test of Ga-NOTA-SCN-GUL, the following experiment was conducted.
The PSMA positive prostate cancer cell line 22Rv1 was loaded in a 24-well plate at the density of 2×10^5 cells/well, followed by culture in a 37[…] 5% CO2 incubator for 24 hours. Ga-NOTA-SCN-GUL prepared in Example 2 was diluted 2-fold serially with the cell culture medium containing 0.5% bovine serum albumin. The diluted sample was added to the cultured cells (0.5 mL/well), to which 1.85 kBq (S)-2-(3-((S)-1-carboxy-5-((4-iodobenzyl)amino)pentyl)ureido)pentanedioic acid (I-125-MIP-1072) was added (0.5 mL/well). After well mixed, the mixture was cultured in a 37[…] 5% CO2 incubator for 1 hour. The culture medium was discarded, and the cells were washed with fresh medium twice, to which 0.5% sodium dodecyl sulfate (SDS) dissolved in PBS was added (1 mL/well). The mixture was gently shaken for complete dissolving, and then loaded in a 5 mL disposable plastic test tube. Then, the radioactivity was measured with a gamma counter.

For orientation: IC50 means the concentration that gives 50% inhibition.

T1 sequence (Q04609 whole entry): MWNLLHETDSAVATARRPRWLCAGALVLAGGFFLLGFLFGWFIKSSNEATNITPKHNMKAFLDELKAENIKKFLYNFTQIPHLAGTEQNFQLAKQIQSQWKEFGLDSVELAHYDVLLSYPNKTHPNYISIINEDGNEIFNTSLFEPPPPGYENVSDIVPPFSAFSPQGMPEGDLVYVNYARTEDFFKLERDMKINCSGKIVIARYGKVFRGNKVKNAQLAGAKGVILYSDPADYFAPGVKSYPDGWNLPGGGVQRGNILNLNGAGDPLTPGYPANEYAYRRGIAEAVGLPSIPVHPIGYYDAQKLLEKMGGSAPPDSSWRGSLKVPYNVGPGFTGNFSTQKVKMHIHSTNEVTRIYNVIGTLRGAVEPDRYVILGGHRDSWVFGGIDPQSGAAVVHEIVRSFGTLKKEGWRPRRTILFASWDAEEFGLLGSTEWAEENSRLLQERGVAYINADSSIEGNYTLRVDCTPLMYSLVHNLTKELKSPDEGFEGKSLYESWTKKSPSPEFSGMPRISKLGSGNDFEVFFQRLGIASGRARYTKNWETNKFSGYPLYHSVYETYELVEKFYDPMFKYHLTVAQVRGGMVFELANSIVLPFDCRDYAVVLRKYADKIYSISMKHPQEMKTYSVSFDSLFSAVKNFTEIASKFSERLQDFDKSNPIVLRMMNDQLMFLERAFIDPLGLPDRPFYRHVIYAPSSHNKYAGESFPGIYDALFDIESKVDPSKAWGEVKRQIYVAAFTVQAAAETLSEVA

Regarding `O=C(O)CCC(NC(=O)NC(CCCCNC(=S)Nc1ccc(CC2CN3CCN4CCN2CC(=O)[O][Ga]([O]C(=O)C4)[O]C(=O)C3)cc1)C(=O)O)C(=O)O` (stereo not shown) [Example 2], the IC50 stood at 18.3 nM.
